According to patent publication US20160058722A1, “METHOD FOR IMPROVING THE OXYGEN-RELEASING ABILITY OF HEMOGLOBIN TO ORGANS AND PERIPHERAL TISSUES IN HUMAN BODIES” (NATIONAL SUN YAT-SEN UNIVERSITY, priority 2014, published 2016):

Biological target: hemoglobin (Homo sapiens, UniProt P68871+P69905)
Assay: resonance Raman spectroscopy of oxygenated hemoglobin, percentage of "R" state
Assay type: biochemical
Conditions: varying mole ratio to hemoglobin tetramer, 532 nm excitation, oxygen atmosphere
Text: In order to evaluate the effect of ferulic acid on stabilizing the oxygenated hemoglobin in the low oxygen affinity “T” state, compounds including 2,3-BPG (group A0) and ferulic acid (group A1) are mixed with hemoglobin as a function of their mole ratio to hemoglobin, followed by the resonance Raman spectroscopy measurements at 532 nm excitation wavelength under the oxygen atmosphere. The percentages of the high oxygen affinity “R” state for hemoglobin treated with 2,3-BPG (shown in FIG. 2a, as reference) and ferulic acid (shown in FIG. 2b) are analyzed from the resonance Raman spectroscopy measurements. In more specific, the percentage of high oxygen affinity “R” state for each treated hemoglobin was obtained by fitting a simulated spectrum comprised of adjustable weighing factors of the T and R states of pure hemoglobin to the obtained resonance Raman spectrum of treated hemoglobin.

hemoglobin, sequence (P69905 2-142): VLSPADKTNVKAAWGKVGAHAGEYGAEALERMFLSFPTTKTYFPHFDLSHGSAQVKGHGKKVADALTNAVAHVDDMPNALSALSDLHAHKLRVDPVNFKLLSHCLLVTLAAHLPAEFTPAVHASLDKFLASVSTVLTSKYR
hemoglobin, sequence (P68871 2-147): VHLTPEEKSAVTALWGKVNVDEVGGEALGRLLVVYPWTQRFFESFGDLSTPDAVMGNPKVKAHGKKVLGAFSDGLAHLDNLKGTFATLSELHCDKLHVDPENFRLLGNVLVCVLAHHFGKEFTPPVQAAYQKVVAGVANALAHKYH

"R" state suppression efficiency | SMILES
about 20% | O=C(O)C(COP(=O)(O)O)OP(=O)(O)O (centres unmarked) [2,3-BPG, 2,3-bisphosphoglycerate]
higher than 50% | COc1cc(/C=C/C(=O)O)ccc1O [ferulic acid]
